# Patent US20230172205A1 (priority 2020, published 2023)
# Read-outs that look alike come from different tables or passages of the source.
# Legend:
# Pyricularia oryzae = assay: microbe, parasite or virus in culture; format: cell-based; conditions: Pyricularia oryzae, 168 h, read-out: Fungal growth (%) PYRIOR
# [1] = system: Phakopsora pachyrhizi, isolate with amino acid substitution F129L in the mitochondrial cytochrome b protein; assay: Protective control of soybean rust on detached soybean leaves (PHAKPA P1 DL), F129L isolate; format: in vivo; conditions: Table C6b
# [2] = system: Phakopsora pachyrhizi, strain with amino acid substitution F129L in the mitochondrial cytochrome b protein; assay: Protective control of soybean rust on soybeans (PHAKPA P6); format: in vivo; conditions: for % PHAKPA (F129L) Disease level, P6 at 4 ppm: protective P6, 4 ppm; for % PHAKPA (F129L) Disease level, P6 at 4 ppm / % PHAKPA (F129L) Disease level, P6 at 16 ppm: soybean rust F129L strain; for % PHAKPA (F129L) Disease level, P6 at 16 ppm: protective P6, 16 ppm
# Microdochium nivale = assay: microbe, parasite or virus in culture; format: cell-based; conditions: 168 h, read-out: Fungal growth (%) MONGNI
# [3] = system: Phakopsora pachyrhizi, strain with amino acid substitution F129L in the mitochondrial cytochrome b protein; assay: Protective control of soybean rust on soybeans (PHAKPA P2); format: in vivo; conditions: for % PHAKPA (F129L) Disease level, P2 at 4 ppm: protective P2, 4 ppm; for % PHAKPA (F129L) Disease level, P2 at 4 ppm / % PHAKPA (F129L) Disease level, P2 at 16 ppm: soybean rust F129L strain; for % PHAKPA (F129L) Disease level, P2 at 16 ppm: protective P2, 16 ppm
# [4] = system: Alternaria solani, Qo inhibitor-resistant isolate containing F129L in the mitochondrial cytochrome b protein; assay: Micro titer plate test, activity against Alternaria solani causing early blight (ALTESO), F129L; format: cell-based; conditions: Alternaria solani, 168 h
# [5] = system: Alternaria solani, sensitive wild-type isolate (wt); assay: microbe, parasite or virus in culture; format: cell-based; conditions: 168 h, read-out: Fungal growth (%) ALTESO wt
# [6] = system: Phakopsora pachyrhizi, isolate sensitive to Qo inhibitors (wt); assay: Protective control of soybean rust on detached soybean leaves (PHAKPA P1 DL), wt isolate; format: in vivo; conditions: Table C6a
# Septoria tritici = assay: microbe, parasite or virus in culture; format: cell-based; conditions: Zymoseptoria tritici, 168 h, read-out: Fungal growth (%) SEPTTR
# [7] = system: Colletotrichum orbiculare; assay: microbe, parasite or virus in culture; format: cell-based; conditions: 168 h, read-out: Fungal growth (%) COLLLA
structure (smiles),measurement,setting,value
CNC(=O)/C(=N/OC)c1cccc(C)c1CO/N=C(\C)c1ccc(Cl)cc1 [Ex. 158],activity at 0.016 ppm,Pyricularia oryzae,38%
same,"PHAKPA P1 DL Disease level (%), Qo I-resistant F129L isolate (100% F129L)","[1]; 0.3 ppm, 0 ppm control 93",87%
same,"PHAKPA P1 DL Disease level (%), Qo I-resistant F129L isolate (100% F129L)",[1]; 1 ppm,57%
same,"PHAKPA P1 DL Disease level (%), Qo I-resistant F129L isolate (100% F129L)",[1]; 3 ppm,8%
same,"PHAKPA P1 DL Disease level (%), Qo I-resistant F129L isolate (100% F129L)",[1]; 10 ppm,2%
same,"PHAKPA P1 DL Disease level (%), Qo I-resistant F129L isolate (100% F129L)",[1]; 30 ppm,4%
same,"PHAKPA P1 DL Disease level (%), Qo I-resistant F129L isolate (100% F129L)",[1]; 100 ppm,4%
same,"PHAKPA P1 DL Disease level (%), Qo I-resistant F129L isolate (100% F129L)",[1]; 300 ppm,5%
same,PHAKPA (F129L) Disease level (%) P6 at 4 ppm,"[2]; Table C2, protective, inoculation six days after spraying, 4 ppm, % diseased leaf area on soybean, untreated 99",4%
same,"% PHAKPA (F129L) Disease level, P6 at 4 ppm",[2],2%
same,"% PHAKPA (F129L) Disease level, P6 at 16 ppm",[2],0%
same,activity at 0.016 ppm,Microdochium nivale,71%
same,PHAKPA (F129L) Disease level (%) P2 at 4 ppm,"[3]; Table C2, protective, inoculation 2 days after spraying, 4 ppm, % diseased leaf area on soybean, untreated 100",1%
same,"% PHAKPA (F129L) Disease level, P2 at 4 ppm",[3],0%
same,"% PHAKPA (F129L) Disease level, P2 at 16 ppm",[3],0%
same,activity at 0.016 ppm,"[4]; Table C5, read-out: Fungal growth (%) ALTESO F129L",79%
same,activity at 0.016 ppm,[5],66%
same,"PHAKPA P1 DL Disease level (%), Qo I-sensitive wt isolate (0% F129L)","[6]; 0.3 ppm, 0 ppm control 93",38%
same,"PHAKPA P1 DL Disease level (%), Qo I-sensitive wt isolate (0% F129L)",[6]; 1 ppm,7%
same,"PHAKPA P1 DL Disease level (%), Qo I-sensitive wt isolate (0% F129L)",[6]; 3 ppm,2%
same,"PHAKPA P1 DL Disease level (%), Qo I-sensitive wt isolate (0% F129L)",[6]; 10 ppm,1%
same,"PHAKPA P1 DL Disease level (%), Qo I-sensitive wt isolate (0% F129L)",[6]; 30 ppm,4%
same,"PHAKPA P1 DL Disease level (%), Qo I-sensitive wt isolate (0% F129L)",[6]; 100 ppm,5%
same,"PHAKPA P1 DL Disease level (%), Qo I-sensitive wt isolate (0% F129L)",[6]; 300 ppm,4%
CNC(=O)/C(=N/OC)c1cccc(C)c1CO/N=C(\C)c1cccc(C)c1 [Ex. 77],activity at 0.25 ppm,Septoria tritici,49%
same,activity at 0.016 ppm,Pyricularia oryzae,20%
same,"PHAKPA (F129L) Disease level (%), P6 at 16 ppm","[2]; P6 at 16 ppm, untreated 75%",20%
same,"% PHAKPA (F129L) Disease level, P6 at 4 ppm",[2],40%
same,"% PHAKPA (F129L) Disease level, P6 at 16 ppm",[2],3%
same,PHAKPA (F129L) Disease level (%) P2 at 4 ppm,"[3]; P2 at 4 ppm, untreated 92%",37%
same,"% PHAKPA (F129L) Disease level, P2 at 4 ppm",[3],67%
same,"% PHAKPA (F129L) Disease level, P2 at 16 ppm",[3],4%
same,activity at 0.063 ppm,[7],39%
same,activity at 0.016 ppm,"[4]; Table C14, read-out: Fungal growth (%) ALTESO F129L",69%
same,activity at 0.016 ppm,[5],73%
